Reference: PubChem BioAssay AID248 (DTP/NCI, 2004)
Toxic doses and inconclusive results are not listed.

System: L1210 leukemia ip in BDF1 mice, survival T/C
Test: NCI In Vivo Anticancer Drug Screen. Data for tumor model L1210 Leukemia (intraperitoneal) in B6D2F1 (BDF1) mice
Details: endpoint: mean survival time, higher = longer survival
How it was run: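 Ratio derived from survival: compound-dosed mice over vehicle-dosed mice, all bearing a transplantable tumor.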

[1] = dose: 100.0 mg/kg/injection, schedule: Q04DX003 (ip), vehicle: saline
[2] = dose: 200.0 mg/kg/injection, schedule: Q04DX003 (ip), vehicle: saline
[3] = dose: 400.0 mg/kg/injection, schedule: Q04DX003 (ip), vehicle: saline

**Q.** For `Cc1c(C)c(C)c(C(=O)C[n+]2ccccc2)c(C)c1C`, which T/C (dose: 12.5 mg/kg/injection, schedule: Q04DX002 (ip), vehicle: saline) is on record?
**A.** 104 % of control

**Q.** And the T/C (dose: 25.0 mg/kg/injection, schedule: Q04DX002 (ip), vehicle: saline)?
**A.** 96 % of control

**Q.** What about the T/C (dose: 50.0 mg/kg/injection, schedule: Q04DX002 (ip), vehicle: saline) of the same compound?
**A.** 107 % of control

**Q.** What does the source list for `O=C(CCCC(=O)N/N=C/c1cc(Cl)cc(Cl)c1O)N/N=C\c1cc(Cl)cc(Cl)c1O`?
**A.** T/C (dose: 50.0 mg/kg/injection, schedule: Q01DX001 (ip), vehicle: saline): 100 % of control; T/C (dose: 100.0 mg/kg/injection, schedule: Q01DX001 (ip), vehicle: saline): 97 % of control; T/C (dose: 200.0 mg/kg/injection, schedule: Q01DX001 (ip), vehicle: saline): 100 % of control; T/C (dose: 400.0 mg/kg/injection, schedule: Q01DX001 (ip), vehicle: saline): 97 % of control

**Q.** Which T/C (dose: 100.0 mg/kg/injection, schedule: Q01DX009 (ip), vehicle: saline) does the source give for `CCCCCCCCCCCCCCCC(=O)N(CCC#N)CCCCCCCCCN(CCC#N)C(=O)CCCCCCCCCCCCCCC` here?
**A.** 86 % of control

**Q.** And the T/C [1]?
**A.** 94 % of control

**Q.** What about the T/C [2] of the same compound?
**A.** 87 % of control

**Q.** And the T/C (dose: 400.0 mg/kg/injection, schedule: Q01DX009 (ip), vehicle: saline)?
**A.** 91 % of control

**Q.** And the T/C [3]?
**A.** 92 % of control

**Q.** What does the source list for `CN(C)CC(Cl)CCl` (stereo not given)?
**A.** T/C [1]: 98 % of control; T/C [2]: 107 % of control; T/C [3]: 115 % of control

**Q.** How did the T/C (dose: 12.5 mg/kg/injection, schedule: Q04DX003 (ip), vehicle: Klucel (hydroxypropylcellulose) (HPC)) turn out when `Cc1ccc2ccc3ccc(C)nc3c2n1` was run?
**A.** 99 % of control

**Q.** And the T/C (dose: 25.0 mg/kg/injection, schedule: Q04DX003 (ip), vehicle: Klucel (hydroxypropylcellulose) (HPC))?
**A.** 97 % of control

**Q.** And the T/C (dose: 50.0 mg/kg/injection, schedule: Q04DX003 (ip), vehicle: Klucel (hydroxypropylcellulose) (HPC))?
**A.** 101 % of control

**Q.** Which T/C (dose: 100.0 mg/kg/injection, schedule: Q01DX001 (ip), vehicle: Klucel (hydroxypropylcellulose) (HPC)) does the source give for `Nc1cc2ccc3ccccc3c2c2ccccc12` here?
**A.** 110 % of control

**Q.** And the T/C (dose: 130.0 mg/kg/injection, schedule: Q01DX001 (ip), vehicle: Klucel (hydroxypropylcellulose) (HPC))?
**A.** 94 % of control

**Q.** Which T/C (dose: 1.0 mg/kg/injection, schedule: Q01DX015 (ip), vehicle: carboxymethylcellulose (CMC)) does the source give for `NNc1ncnc2c1ncn2C1OC(CO)C(O)C1O` (stereo not given) here?
**A.** 106 % of control

**Q.** What about the T/C (dose: 3.0 mg/kg/injection, schedule: Q01DX015 (ip), vehicle: carboxymethylcellulose (CMC)) of the same compound?
**A.** 109 % of control

**Q.** What about the T/C (dose: 6.0 mg/kg/injection, schedule: Q01DX015 (ip), vehicle: carboxymethylcellulose (CMC)) of the same compound?
**A.** 106 % of control

**Q.** And the T/C (dose: 12.0 mg/kg/injection, schedule: Q01DX015 (ip), vehicle: carboxymethylcellulose (CMC))?
**A.** 97 % of control

**Q.** What about the T/C (dose: 20.0 mg/kg/injection, schedule: Q01DX015 (ip), vehicle: carboxymethylcellulose (CMC)) of the same compound?
**A.** 106 % of control

**Q.** And the T/C (dose: 25.0 mg/kg/injection, schedule: Q01DX015 (ip), vehicle: carboxymethylcellulose (CMC))?
**A.** 118 % of control

**Q.** What about the T/C (dose: 30.0 mg/kg/injection, schedule: Q01DX015 (ip), vehicle: carboxymethylcellulose (CMC)) of the same compound?
**A.** 108 % of control

**Q.** And the T/C (dose: 44.0 mg/kg/injection, schedule: Q01DX015 (ip), vehicle: carboxymethylcellulose (CMC))?
**A.** 122 % of control

**Q.** And the T/C (dose: 50.0 mg/kg/injection, schedule: Q01DX001 (ip), vehicle: carboxymethylcellulose (CMC))?
**A.** 108 % of control

**Q.** And the T/C (dose: 50.0 mg/kg/injection, schedule: Q01DX Z (ip), vehicle: other)?
**A.** 122 % of control

**Q.** And the T/C (dose: 75.0 mg/kg/injection, schedule: Q01DX Z (ip), vehicle: other)?
**A.** 121 % of control

**Q.** What about the T/C (dose: 100.0 mg/kg/injection, schedule: Q01DX001 (ip), vehicle: carboxymethylcellulose (CMC)) of the same compound?
**A.** 116 % of control

**Q.** What about the T/C (dose: 100.0 mg/kg/injection, schedule: Q01DX015 (ip), vehicle: carboxymethylcellulose (CMC)) of the same compound?
**A.** 124 % of control

**Q.** What about the T/C (dose: 100.0 mg/kg/injection, schedule: Q01DX Z (ip), vehicle: other) of the same compound?
**A.** 152 % of control

**Q.** And the T/C (dose: 150.0 mg/kg/injection, schedule: Q01DX015 (ip), vehicle: carboxymethylcellulose (CMC))?
**A.** 86 % of control

**Q.** And the T/C (dose: 150.0 mg/kg/injection, schedule: Q01DX Z (ip), vehicle: other)?
**A.** 95 % of control

**Q.** What about the T/C (dose: 186.75 mg/kg/injection, schedule: Q01DX015 (ip), vehicle: gum acacia) of the same compound?
**A.** 83 % of control

**Q.** What about the T/C (dose: 200.0 mg/kg/injection, schedule: Q01DX001 (ip), vehicle: carboxymethylcellulose (CMC)) of the same compound?
**A.** 111 % of control

**Q.** And the T/C (dose: 220.0 mg/kg/injection, schedule: Q01DX015 (ip), vehicle: carboxymethylcellulose (CMC))?
**A.** 95 % of control

**Q.** What does the source list for `COc1ccccc1NC(=O)c1ccccc1`?
**A.** T/C (dose: 100.0 mg/kg/injection, schedule: Q01DX009 (ip), vehicle: Klucel (hydroxypropylcellulose) (HPC)): 89 % of control; T/C (dose: 400.0 mg/kg/injection, schedule: Q01DX009 (ip), vehicle: Klucel (hydroxypropylcellulose) (HPC)): 95 % of control

**Q.** Which results are given for `c1ccc([P+]2(c3ccccc3)CC[P+](c3ccccc3)(c3ccccc3)CC2)cc1`?
**A.** T/C (dose: 9.5 mg/kg/injection, schedule: Q01DX001 (ip), vehicle: saline): 103 % of control; T/C (dose: 19.0 mg/kg/injection, schedule: Q01DX001 (ip), vehicle: saline): 101 % of control; T/C (dose: 38.0 mg/kg/injection, schedule: Q01DX001 (ip), vehicle: saline): 97 % of control; T/C (dose: 75.0 mg/kg/injection, schedule: Q01DX001 (ip), vehicle: saline): 100 % of control
